Data as given in PubChem BioAssay AID1963964 (Molecular Pharmacology Branch, DTP, NCI, 2024).

System: 997726-040-R-J2-PDC tumor spheroids, viability
Assay: Anticancer human tumor 997726-040-R-J2-PDC patient-derived squamous cell lung carcinoma cell line growth inhibition [PI3K]
Conditions: spheroids with HUVEC and MSC; for IC50: curve of first compound; for viability, T/C: stronger effect = lower value
Summary of the method: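 Tumor cells grown as multi-cell spheroids with HUVEC endothelial cells and MSC fibroblast-like stroma were treated with targeted agents combined with inavolisib, alpelisib, duvelisib or copanlisib. Doses fell in half-log steps from near clinical Cmax, else from 10 microM. Viability was measured.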

[1] = second compound 0.0316 µM, first compound 0.0316 µM
[2] = second compound 0.0316 µM, first compound 0.1 µM
[3] = second compound 0.1 µM, first compound 0.0316 µM
[4] = second compound 0.1 µM, first compound 0.1 µM
[5] = second compound 0.316 µM, first compound 0.0316 µM
[6] = second compound 0.316 µM, first compound 0.1 µM
[7] = second compound 1 µM, first compound 0.0316 µM
[8] = second compound 1 µM, first compound 0.1 µM
[9] = second compound 3.16 µM, first compound 0.0316 µM
[10] = second compound 3.16 µM, first compound 0.1 µM
[11] = second compound 10 µM, first compound 0.0316 µM
[12] = second compound 10 µM, first compound 0.1 µM
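Note: spheroids exposed to compounds for seven days before readout.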

For CC(C)NCC(C(=O)N1CCN(c2ncnc3c2C(C)CC3O)CC1)c1ccc(Cl)cc1 (centres undefined) + Cc1nc(NC(=O)N2CCCC2C(N)=O)sc1-c1ccnc(C(C)(C)C(F)(F)F)c1, the IC50 (second compound 0.0316 µM) was 269 nM, the IC50 (second compound 0.1 µM) was 269 nM and the IC50 (second compound 0.316 µM) was 120 nM. The IC50 (second compound 1 µM) was less than 31.6 nM, the IC50 (second compound 3.16 µM) was less than 31.6 nM and the IC50 (second compound 10 µM) was less than 31.6 nM. The viability, T/C [1] was 73.4%, the viability, T/C [2] was 65.9% and the viability, T/C (second compound 0.0316 µM, first compound 0.316 µM) was 47.7%. The viability, T/C (second compound 0.0316 µM, first compound 1 µM) was 23.8%, the viability, T/C (second compound 0.0316 µM, first compound 3.16 µM) was 12.7% and the viability, T/C (second compound 0.0316 µM, first compound 10 µM) was 8.8%. It also gave a viability, T/C [3] of 71.6%, a viability, T/C [4] of 66.8% and a viability, T/C (second compound 0.1 µM, first compound 0.316 µM) of 46.6%. The viability, T/C (second compound 0.1 µM, first compound 1 µM) was 25.9%, the viability, T/C (second compound 0.1 µM, first compound 3.16 µM) was 15.2% and the viability, T/C (second compound 0.1 µM, first compound 10 µM) was 10.6%. For the same molecule, the viability, T/C [5] was 55.9%, the viability, T/C [6] was 52.5% and the viability, T/C (second compound 0.316 µM, first compound 0.316 µM) was 39%. It also gave a viability, T/C (second compound 0.316 µM, first compound 1 µM) of 22.4%, a viability, T/C (second compound 0.316 µM, first compound 3.16 µM) of 11.2% and a viability, T/C (second compound 0.316 µM, first compound 10 µM) of 9.52%. For the same molecule, the viability, T/C [7] was 49.5%, the viability, T/C [8] was 37.2% and the viability, T/C (second compound 1 µM, first compound 0.316 µM) was 34%. The viability, T/C (second compound 1 µM, first compound 1 µM) was 21%, the viability, T/C (second compound 1 µM, first compound 3.16 µM) was 10.5% and the viability, T/C (second compound 1 µM, first compound 10 µM) was 6.76%. For the same molecule, the viability, T/C [9] was 33.2%, the viability, T/C [10] was 27.5% and the viability, T/C (second compound 3.16 µM, first compound 0.316 µM) was 25%. The viability, T/C (second compound 3.16 µM, first compound 1 µM) was 16.5%, the viability, T/C (second compound 3.16 µM, first compound 3.16 µM) was 7.98% and the viability, T/C (second compound 3.16 µM, first compound 10 µM) was 4.28%. For the same molecule, the viability, T/C [11] was 15.8%, the viability, T/C [12] was 10.9% and the viability, T/C (second compound 10 µM, first compound 0.316 µM) was 10.7%. The viability, T/C (second compound 10 µM, first compound 1 µM) was 5.86%, the viability, T/C (second compound 10 µM, first compound 3.16 µM) was 3.95% and the viability, T/C (second compound 10 µM, first compound 10 µM) was 3.36%.
Cn1ncnc1[C@H]1c2n[nH]c(=O)c3cc(F)cc(c23)N[C@@H]1c1ccc(F)cc1 + Cc1nc(NC(=O)N2CCCC2C(N)=O)sc1-c1ccnc(C(C)(C)C(F)(F)F)c1 showed an IC50 (second compound 0.0316 µM) greater than 100 nM, an IC50 (second compound 0.1 µM) greater than 100 nM and an IC50 (second compound 0.316 µM) greater than 100 nM. It also gave an IC50 (second compound 1 µM) of less than 0.316 nM, an IC50 (second compound 3.16 µM) of less than 0.316 nM and an IC50 (second compound 10 µM) of less than 0.316 nM. For the same molecule, the viability, T/C (second compound 0.0316 µM, first compound 0.000316 µM) was 83.8%, the viability, T/C (second compound 0.0316 µM, first compound 0.001 µM) was 81.5% and the viability, T/C (second compound 0.0316 µM, first compound 0.00316 µM) was 94.3%. The viability, T/C (second compound 0.0316 µM, first compound 0.01 µM) was 84.9%, the viability, T/C [1] was 90.7% and the viability, T/C [2] was 90.4%. It also gave a viability, T/C (second compound 0.1 µM, first compound 0.000316 µM) of 75.5%, a viability, T/C (second compound 0.1 µM, first compound 0.001 µM) of 78.6% and a viability, T/C (second compound 0.1 µM, first compound 0.00316 µM) of 78.5%. The viability, T/C (second compound 0.1 µM, first compound 0.01 µM) was 80.2%, the viability, T/C [3] was 80.8% and the viability, T/C [4] was 78.2%. It also gave a viability, T/C (second compound 0.316 µM, first compound 0.000316 µM) of 54.5%, a viability, T/C (second compound 0.316 µM, first compound 0.001 µM) of 59.4% and a viability, T/C (second compound 0.316 µM, first compound 0.00316 µM) of 57.2%. For the same molecule, the viability, T/C (second compound 0.316 µM, first compound 0.01 µM) was 57.2%, the viability, T/C [5] was 58.4% and the viability, T/C [6] was 58%. The viability, T/C (second compound 1 µM, first compound 0.000316 µM) was 46.2%, the viability, T/C (second compound 1 µM, first compound 0.001 µM) was 43.4% and the viability, T/C (second compound 1 µM, first compound 0.00316 µM) was 40.3%. The viability, T/C (second compound 1 µM, first compound 0.01 µM) was 41.5%, the viability, T/C [7] was 44.9% and the viability, T/C [8] was 45.1%. The viability, T/C (second compound 3.16 µM, first compound 0.000316 µM) was 33%, the viability, T/C (second compound 3.16 µM, first compound 0.001 µM) was 29.4% and the viability, T/C (second compound 3.16 µM, first compound 0.00316 µM) was 30%. The viability, T/C (second compound 3.16 µM, first compound 0.01 µM) was 31.4%, the viability, T/C [9] was 30.4% and the viability, T/C [10] was 29%. It also gave a viability, T/C (second compound 10 µM, first compound 0.000316 µM) of 17.2%, a viability, T/C (second compound 10 µM, first compound 0.001 µM) of 18% and a viability, T/C (second compound 10 µM, first compound 0.00316 µM) of 16.3%. For the same molecule, the viability, T/C (second compound 10 µM, first compound 0.01 µM) was 13.6%, the viability, T/C [11] was 18.8% and the viability, T/C [12] was 12.8%.
